From patent US20240423245A1, “CANNABINOIDS FOR IMPROVEMENT OF P[…] LIVESTOCK” (Kansas State University Research Foundation, priority 2021, published 2024)
Several values for one entry are separate records, joined by “and”; a condition that tells them apart may be missing. Equal values may be shown once. Read-outs that look alike come from different tables or passages of the source.

Experiments:
[1] = Plasma cannabinoid concentrations and pharmacokinetics during 14-day industrial hemp feeding; assay type: in vivo, Holstein cattle; conditions: for detection in plasma: HEMP cattle, doses 0.005 mg/kg CBDVA, 0.2 mg/kg CBGA, 0.1 mg/kg THCA-A; for number of plasma samples in which cannabinoid was detected: of 288 samples from HEMP (IH) cattle; for half-life / Cmax / AUC(0-inf) / AUC(0-t) / MRT inf / Tmax: Holstein, bovine; for MRT inf: read-out: MRT0-∞
Description: Cattle in the HEMP group were individually fed 25 g IH mixed in 200 g grain placed in rubber feed pans at 07:00 daily for 14 days. The IH was fed at 25 g per animal per day to target a mean dose of CBDA of 5.5 mg/kg. Daily IH feeding was after the daily blood sample for cattle in the HEMP group.
Cattle were blood sampled at predetermined time points from the jugular or coccygeal veins using a needle and vacutainer. Whole blood was collected into tubes containing sodium heparin, EDTA, sodium citrate, and no additives. Blood samples from the HEMP cattle were obtained prior to initial IH feeding (day −1) and 8 and 12 h post-initial IH feeding; then every 12 h (prior to the next IH feeding); then (starting 12 hours after the last IH feeding) every 24 hours for 5 samples or 108 h after the last IH feeding Cattle in the CNTL group were blood sampled −24 h prior to the initial IH feeding; and on day 7, 14 and 19 post-initial IH feeding.
Plasma cannabinoid concentrations were determined using UPLC-MS methods. All solvents used such as methanol, acetonitrile, isopropanol, formic acid were LC-MS grade. Cannabinoids standards were purchased in individual solutions in methanol (Cerilliant Corporation, Round Rock, TX), including: (±)-cis-11-Nor-9-carboxy-A 9-tetrahydrocannabinol glucuronide (THC-glu), (±)-11-Hydroxy-Δ9-tetrahydrocannabinol (THC-OH), cannabidivarinic acid (CBDVA), cannabidivarin (CBDV), cannabidiol (CBD), cannabidiolic acid (CBDA), Δ9-Tetrahydrocannabinolic acid A (THCA-A), cannabigerolic acid (CBGA), cannabigerol (CBG), Δ9-tetrahydrocannabinol (9-THC), Δ8-tetrahydrocannabinol (8-THC), cannabichromene (CBC), Δ9-tetrahydrocannabivarin (THCV), cannabichromenic Acid (CBCA), cannabinol (CBN), (−)-11-nor-9-Carboxy-Δ9-tetrahydrocannabinol (THC-acid). Cannabinoid analogs used as internal standards were also purchased in solution in methanol at 100 μg/ml (Cerilliant Corporation, Round Rock, TX): (±)-cis-11-Nor-9-carboxy-Δ9-tetrahydrocannabinol glucuronide (THC-glu-d3), Cannabidiol-d3 (CBD-d3), Δ9-Tetrahydrocannabinol-d3 (9-THC-d3), (±)-11-nor-9-Carboxy-D9-tetrahydrocannabinol-d9 (THC-acid-d9), (±)-11-Hydroxy-Δ9-tetrahydrocannabinol-d3 (THC-OH-d3), Cannabichromene-do (CBC-d9). All cannabinoids standards were kept in the freezer at −20° C. On the day of analysis, plasma samples were allowed to thaw. Plasma (samples, quality controls or negative control plasma) were mixed with the internal standard mixture at 200 ng/mL (not added to the negative control sample) and acetonitrile with 0.1% formic acid to precipitate the proteins. The mixture was vortexed for 5 seconds and centrifuge for 5 minutes at 7,000 g. The supernatant was then diluted with ultra-pure […] water before clean-up. The sample was loaded on a solid phase extraction plate using positive pressure nitrogen. Each well was washed twice with 0.25 mL of a mixture of methanol-water (25:75). The compounds were eluted with two-25 μL aliquots of acetonitrile-methanol (90:10) and diluted with 50 μL of water before analysis.
Cannabinoid analysis was performed using an Acquity H UPLC and a TQ-S triple quadrupole mass spectrometer (Waters Corp., Milford, MA). The chromatographic separation was performed with a UPLC column (Eclipse Plus C18, Agilent Technologies, Santa Clara, CA) 100×2.1 mm, 1.8μ, heated at 55° C. The flow rate was set at 0.5 mL/min, the mobile phase consisted of a gradient of acetonitrile (B) and water containing 0.1% formic acid (A) as follow: 0 min: 60% B, 6.50 min: 86% B, 7.50 min-9 min: 100% B, 9.01 m in 12 min: 60% B. The total run time was 12 min. The injection volume was 5 μL. The data acquisition was performed by electrospray ionization in positive and negative mode using multiple reaction monitoring. Linear regression with a weighing factor of 1/X was used and accepted if the coefficient of correlation R^2 was >0.99. Calibration curves were linear from 0.1 to 100 ng/ml for all cannabinoids. […]

[2] = cited from earlier work
[3] = plasma, po, 5.5 mg/kg, geometric mean, IH fed 14 days, target dose 5.5 mg/kg CBDA, n = 8
[4] = plasma, po, 5.5 mg/kg, median, IH fed 14 days, target dose 5.5 mg/kg CBDA, n = 8
[5] = geometric mean, IH fed 14 days, target dose 5.5 mg/kg CBDA, n = 8
[6] = median, IH fed 14 days, target dose 5.5 mg/kg CBDA, n = 8
[7] = plasma, initial hemp feeding period

CCCCCc1cc2c(c(O)c1C(=O)O)[C@@H]1C=C(C)CC[C@H]1C(C)(C)O2 [THCA-A, tetrahydrocannabinolic acid A]
detection in plasma [1]: detected in the plasma of all cattle

C=C(C)[C@@H]1CCC(C)=C[C@H]1c1c(O)cc(CCC)c(C(=O)O)c1O [CBDVA, cannabidivarinic acid]
detection in plasma [1]: detected in the plasma of all cattle

CCCCCc1cc2c(c(O)c1C(=O)O)C=CC(C)(CCC=C(C)C)O2 (stereo not shown) [CBCA, cannabichromenic acid]
number of plasma samples in which cannabinoid was detected [1]: 93

C=C(C)[C@@H]1CCC(C)=C[C@H]1c1c(O)cc(CCCCC)cc1O [CBD, cannabidiol, reference compound]
number of plasma samples in which cannabinoid was detected [1]: 159

C=C(C)[C@@H]1CCC(C)=C[C@H]1c1c(O)cc(CCCCC)c(C(=O)O)c1O [CBDA, cannabidiolic acid]
half-life ([1]; plasma, oral, 5.5 mg/kg, geometric mean, IH fed 14 days, target dose 5.5 mg/kg CBDA, n = 8, read-out: T1/2 (terminal half-life) (converted)): 15 h
Cmax ([1]; plasma, oral, 5.5 mg/kg, geometric mean, initial hemp feeding period, target dose 5.5 mg/kg CBDA, n = 8): 22 ng/mL
AUC(0-inf) [1, 3]: 13600 ng·h/mL
AUC(0-t) [1, 3]: 13500 ng·h/mL
MRT inf [1, 3]: 822 h
half-life ([1]; plasma, po, 5.5 mg/kg, geometric mean, IH fed 14 days, target dose 5.5 mg/kg CBDA, n = 8, read-out: T1/2 (terminal half-life) (converted)): 15.3 h
Tmax ([1]; plasma, po, 5.5 mg/kg, geometric mean, after the initial IH feeding, target dose 5.5 mg/kg CBDA, n = 8): 16.7 h
Cmax ([1]; plasma, po, 5.5 mg/kg, geometric mean, initial hemp feeding period, target dose 5.5 mg/kg CBDA, n = 8): 22.1 ng/mL
AUC(0-inf) [1, 4]: 13600 ng·h/mL
AUC(0-t) [1, 4]: 13500 ng·h/mL
Cmax [1, 4]: 22.2 ng/mL
Tmax [1, 4]: 24 h
MRT inf [1, 4]: 772 h
half-life ([1]; plasma, po, 5.5 mg/kg, median, IH fed 14 days, target dose 5.5 mg/kg CBDA, n = 8, read-out: T1/2 (converted)): 14.8 h
time to plasma steady state concentrations ([1]; daily IH administration, visual inspection of the data): approximately 7 days
Accumulation (index/ratio) ([1]; geometric mean / mean, 14-day feeding period, target dose 5.5 mg/kg CBDA, n = 8, 5.5 mg/kg): 1.5 and 1.52
AUC extrapolated [1, 5]: 0.38%
λz [1, 5]: 0.05 h⁻¹
AUC extrapolated [1, 6]: 0.49%
Accumulation [1, 6]: 1.49
λz [1, 6]: 0.05 h⁻¹
geometric mean minimum concentration [1, 7]: 12.3 ng/mL
time of minimum concentration after the initial IH feeding [1, 7]: 9.3 h
maximum CBDA concentration (Cmax), previously reported ([2]; earlier published study): 72.7 ng/mL
terminal half-life, previously published ([2]; earlier published study): 14 h
time of peak concentrations post-exposure ([2]; single oral dosing of IH): 12 to 24 h

CCCCCc1cc(O)c(C/C=C(\C)CCC=C(C)C)c(O)c1C(=O)O [CBGA, cannabigerolic acid]
detection in plasma [1]: detected in the plasma of all cattle
